Laboratory results taken from patent EP3025717A1, “SYNERGISTIC PHARMACEUTICAL COMPOSITION OF TWO ANALGESICS HAVING A DISTINCT PHARMACOKINETIC PROFILE” (FARMACÉUTICOS RAYERE, S.A., priority 2013, dated 2014).

Columns and labels:
acute inflammatory pain = assay: Formalin model of acute inflammatory pain in mice, isobolographic analysis; assay type: in vivo, ICR male mice; details: Mus musculus, ip; individual drug, intraperitoneal, 20 minutes before formalin, phase 2 (15 to 45 minutes); read-out: DE30 (dose causing 30% anti-nociceptive effect)
Protocol: The duration of the experiment was always as short as possible, considering that the number of animals used was the minimum necessary. […] Transparent cylinders of 20 cm diameter X 40 cm high were used, with mirrors. At the start of the experiment, the mice were placed in cylinders for a period of 60 minutes to settle. After this time, the mice were removed for the administration of 20 μL formalin (3% formaldehyde solution). Immediately after formalin administration, the mouse was returned to the cylinder for observing the characteristic behaviour, which consists in counting the number of licks of the injected paw during 5-minute periods to a total time of 45 minutes. […] Groups of animals were used with an average n ≥ 6. Physiological saline solution (0.9) was administered intraperitoneally as a control of each experimental set. […] The percentage of anti-nociception was plotted according to the dose of both analgesics individually or in combination. The data of the dose-response curve were analysed by a variance analysis (ANOVA), followed by a Tukey test. […] The doses used for this assay correspond to those reported as effective in humans, considering that an average human weighs 60 kg.

[1] = cited from earlier work
COX-1 and COX-2 = details: in vitro; cited from earlier work

| SMILES | ED30 (acute inflammatory pain) [mg/kg] | percentage of native drug in the faeces ([1]; faeces) [%] | administered dose excreted in the urine ([1]; mostly as metabolites) [%] | absolute bio-availability ([1]; oral administration) [%] | Tmax ([1]; plasma) [h] | increase of the maximum plasma concentrations by food ([1]; presence of food) [%] | plasma concentrations observed in synovial fluid ([1]; synovial fluid) | percentage of native drug in the urine ([1]; urine) [%] | ratio Cl50COX-2/Cl50COX-1 (inhibits more the constitutive COX-1 than the COX-2) (COX-1 and COX-2) [times] |
| --- | --- | --- | --- | --- | --- | --- | --- | --- | --- |
| Cc1cnc(NC(=O)C2=C(O)c3ccccc3S(=O)(=O)N2C)s1 [MXC, 4-hydroxy-2-methyl-N-(5-methyl-2-thiazolyl)-2H-1,2-benzothiazine-3-carboxamide-1,1-dioxide] | 0.12 ± 0.004 | 1.6 | 43 | 90 | 5 to 6 | 22 | 40-50% | 0.2 |  |
| CC(=O)Oc1ccccc1C(=O)O [aspirin, acetylsalicylic acid] |  |  |  |  |  |  |  |  | 166 |
